Assay results as given in patent US20080102497A1, “ENZYMATIC HYDROLYSIS OF STARCH” (priority 2006, published 2008).
Where two headings read alike, the source gives them in different places.

Columns and labels:
[1] = tested on: glucoamylase from Rhizopus sp.; assay: hydrolysis of cooked dent corn starch; type: biochemical; settings: cooked dent corn starch 0.5%, pH 5.2, 37° C., 10 min
Description: The separate reaction mixtures were incubated at 37° C. for 10 minutes. The control reaction mixtures contained enzyme, buffer, and starch but no manganese ion. The starch hydrolysis reaction was stopped by combining the reaction mixture with a solution containing DNSA and heating for 30 min at 85° C. The absorbance of the control and test samples was measured at 562 nm to monitor the amount of reducing sugar in each sample.

[2] = biological target: T1, α-amylase from bovine pancreas (Bos taurus, UniProt Q3MHH8); assay: hydrolysis of raw corn starch at pH 5.3 or 7.0, reducing sugar by DNSA; type: biochemical; settings: for Relative Activity: 37° C., 20 min
T1 construct: The α-amylase from bovine pancreas; from tissue; host or cells: bovine pancreas
T1 sequence (Q3MHH8 16-511): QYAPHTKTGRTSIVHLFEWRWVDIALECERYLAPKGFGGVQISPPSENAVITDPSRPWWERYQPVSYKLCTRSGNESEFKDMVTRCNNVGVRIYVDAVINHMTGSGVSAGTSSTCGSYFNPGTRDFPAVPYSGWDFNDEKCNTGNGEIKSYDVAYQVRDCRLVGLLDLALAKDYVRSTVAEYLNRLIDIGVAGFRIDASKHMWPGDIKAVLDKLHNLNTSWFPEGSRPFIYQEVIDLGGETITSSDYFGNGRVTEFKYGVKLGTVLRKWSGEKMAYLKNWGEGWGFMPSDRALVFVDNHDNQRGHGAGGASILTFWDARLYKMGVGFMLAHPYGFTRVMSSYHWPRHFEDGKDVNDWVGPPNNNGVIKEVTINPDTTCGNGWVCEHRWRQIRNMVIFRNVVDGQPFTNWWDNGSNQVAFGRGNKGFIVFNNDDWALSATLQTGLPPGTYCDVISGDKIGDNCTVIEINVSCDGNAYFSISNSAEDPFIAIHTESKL

β-amylase from barley = β-amylase from barley (Hordeum vulgare, UniProt P16098); assay: pH effect on hydrolysis of cooked dent corn starch; type: biochemical; settings: 1 mM Mn^++; for Relative Activity: cooked dent corn starch 0.5%, 37° C., 10 min, control at pH 5 = 100
Description: The separate reaction mixtures were then incubated at 37° C. for 10 minutes. The control reaction mixture contained enzyme, buffer, and starch but no manganese ion. The starch hydrolysis reaction was stopped by combining the reaction mixture with a solution containing DNSA and heating for 30 min at 85° C. The absorbance of the control and test samples was measured at 562 nm to monitor the amount of reducing sugar in each sample.

[3] = tested on: glucoamylase from Rhizopus sp.; assay: temperature effect on conversion of raw corn starch; type: biochemical; settings: 1 mM Mn^++; for % Conversion: 10 min, raw corn starch, pH 5.3
Description: An enzyme solution of the glucoamylase from Rhizopus sp. […] Thereafter, 50 μl of the enzyme solution was added to each of four samples containing 15 mg raw corn starch and incubated at 22° C., 32° C., 40° C. or 50° C., respectively, for 10 minutes.

[4] = tested on: enzyme mixture of purified glucoamylase from mushroom and purified α-amylase from barley; assay: hydrolysis of raw corn starch by enzyme mixture, reducing sugar by DNSA; type: biochemical; settings: summary of Table 2
Description: Enzyme mixture was also pre-incubated with 10 mM Fe^++, Cu^++, Ca^++, Mg^++, or disodium ethylenediamine-tetraacetic acid (EDTA). Thereafter, 40 μl of each pre-incubation solution was added to 15 mg raw corn starch, and the reaction mixture incubated at 37° C. for 20 minutes. The control reaction mixture contained substrate, enzyme, and buffer but no additional metal ions. The starch hydrolysis reaction was stopped by combining the reaction mixture with a solution containing 3,5 dinitrosalicylic acid (DNSA) and heating for 30 min at 85° C. The absorbance of the control and test samples was measured at 562 nm to monitor the amount of reducing sugar in each sample.

[5] = biological target: glucoamylase from Aspergillus Niger (Aspergillus niger, UniProt P69328); settings: for Relative Activity: raw corn starch, pH 5.3, 37° C., 20 min
Description: Thereafter, 40 μl of each pre-incubation solution was added to 15 mg raw corn starch, and the reaction mixture incubated at 37° C. for 20 minutes. The control reaction mixture contained substrate, enzyme, and buffer but no manganese ion. The starch hydrolysis reaction was stopped by combining the reaction mixture with a solution containing DNSA and heating for 30 min at 85° C. The absorbance of the control and test samples was measured at 562 nm to monitor the amount of reducing sugar in each sample.

[6] = biological target: α-amylase from Bacillus licheniformis (Bacillus licheniformis, UniProt P06278); assay: hydrolysis of cooked corn starch varieties; type: biochemical; settings: pH 5.2, 37° C., 10 min
α-amylase from Bacillus licheniformis, sequence (P06278 30-512): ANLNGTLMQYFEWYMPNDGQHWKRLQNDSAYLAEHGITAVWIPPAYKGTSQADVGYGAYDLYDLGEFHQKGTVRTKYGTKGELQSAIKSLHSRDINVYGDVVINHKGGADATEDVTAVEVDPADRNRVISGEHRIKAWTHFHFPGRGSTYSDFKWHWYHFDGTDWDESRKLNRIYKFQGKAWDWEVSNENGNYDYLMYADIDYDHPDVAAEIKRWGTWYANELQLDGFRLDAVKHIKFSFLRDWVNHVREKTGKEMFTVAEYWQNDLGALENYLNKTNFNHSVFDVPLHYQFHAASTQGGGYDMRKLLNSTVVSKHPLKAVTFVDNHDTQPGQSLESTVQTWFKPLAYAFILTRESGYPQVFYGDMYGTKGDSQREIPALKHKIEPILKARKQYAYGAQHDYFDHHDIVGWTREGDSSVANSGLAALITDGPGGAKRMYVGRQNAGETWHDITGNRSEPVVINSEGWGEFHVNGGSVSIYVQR
Description: The separate reaction mixtures were incubated at 37° C. for 10 minutes. The control reaction mixture contained enzyme, buffer, and starch but no manganese ion. The starch hydrolysis reaction was stopped by combining the reaction mixture with a solution containing DNSA and heating for 30 min at 85° C. The absorbance of the control and test samples was measured at 562 nm to monitor the amount of reducing sugar in each sample.

glucoamylase from Aspergillus Niger, sequence (P69328 25-640): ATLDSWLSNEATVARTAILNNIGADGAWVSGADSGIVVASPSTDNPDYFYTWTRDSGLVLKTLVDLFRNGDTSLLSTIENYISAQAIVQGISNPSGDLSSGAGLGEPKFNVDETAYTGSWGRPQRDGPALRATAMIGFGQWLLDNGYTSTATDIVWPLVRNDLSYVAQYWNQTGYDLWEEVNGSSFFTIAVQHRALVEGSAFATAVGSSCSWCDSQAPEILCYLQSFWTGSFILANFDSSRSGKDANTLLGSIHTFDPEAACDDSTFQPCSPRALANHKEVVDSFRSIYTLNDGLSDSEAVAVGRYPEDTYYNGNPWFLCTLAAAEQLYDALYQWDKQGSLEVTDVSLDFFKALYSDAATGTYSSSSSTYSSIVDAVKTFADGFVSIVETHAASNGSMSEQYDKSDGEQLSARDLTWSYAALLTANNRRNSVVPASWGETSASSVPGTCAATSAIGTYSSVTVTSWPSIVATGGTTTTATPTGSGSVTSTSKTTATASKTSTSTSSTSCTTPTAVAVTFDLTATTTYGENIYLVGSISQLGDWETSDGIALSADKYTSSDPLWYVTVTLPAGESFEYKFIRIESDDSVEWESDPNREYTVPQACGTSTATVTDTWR
β-amylase from barley, sequence (P16098 whole entry): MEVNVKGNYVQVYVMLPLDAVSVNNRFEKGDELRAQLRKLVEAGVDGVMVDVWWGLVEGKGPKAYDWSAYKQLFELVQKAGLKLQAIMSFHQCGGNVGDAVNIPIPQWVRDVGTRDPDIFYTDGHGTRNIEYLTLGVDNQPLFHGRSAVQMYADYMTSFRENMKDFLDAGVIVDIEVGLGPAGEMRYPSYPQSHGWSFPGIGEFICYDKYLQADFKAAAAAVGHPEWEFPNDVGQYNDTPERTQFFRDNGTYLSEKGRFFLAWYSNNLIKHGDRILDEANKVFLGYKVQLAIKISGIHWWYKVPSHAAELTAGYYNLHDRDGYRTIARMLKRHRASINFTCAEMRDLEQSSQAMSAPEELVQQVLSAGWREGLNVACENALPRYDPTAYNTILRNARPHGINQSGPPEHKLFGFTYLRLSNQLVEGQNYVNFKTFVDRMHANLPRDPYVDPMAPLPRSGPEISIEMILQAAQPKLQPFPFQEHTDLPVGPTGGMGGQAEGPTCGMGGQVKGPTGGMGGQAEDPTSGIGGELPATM

[Mn+2] [Mn^++, manganese ions]
Relative Activity ([1]; 0.01 mM Mn^++): 112.0%
Relative Activity ([1]; 0.1 mM Mn^++): 123.8%
Relative Activity ([1]; 1 mM Mn^++): 145.1%
Relative Activity ([1]; 10 mM Mn^++): 223.5%
Relative Activity ([2]; 0.01 mM Mn^++, pH 5.3 sodium acetate buffer): 108.3%
Relative Activity ([2]; 0.01 mM Mn^++, pH 7.0 potassium phosphate buffer): 103.5%
Relative Activity ([2]; 0.1 mM Mn^++, pH 5.3 sodium acetate buffer): 125.0%
Relative Activity ([2]; 0.1 mM Mn^++, pH 7.0 potassium phosphate buffer): 103.5%
Relative Activity ([2]; 1 mM Mn^++, pH 5.3 sodium acetate buffer): 145.2%
Relative Activity ([2]; 1 mM Mn^++, pH 7.0 potassium phosphate buffer): 119.6%
Relative Activity ([2]; 10 mM Mn^++, pH 5.3 sodium acetate buffer): 139.9%
Relative Activity ([2]; 10 mM Mn^++, pH 7.0 potassium phosphate buffer): 95.7%
pH dependence of Mn^++ activation (in words) ([2]; pH 5.3 vs 7.0): greater activation at a pH of 5.3 than at 7.0
pH range of greatest Mn^++ induced enhancement (β-amylase from barley; cooked dent corn starch, pH 3-8 tested): 5.0-6.0
Relative Activity (β-amylase from barley; pH 3): 0%
Relative Activity (β-amylase from barley; pH 4): 105.8%
Relative Activity (β-amylase from barley; pH 5): 173.1%
Relative Activity (β-amylase from barley; pH 6): 176.9%
Relative Activity (β-amylase from barley; pH 7): 165.4%
Relative Activity (β-amylase from barley; pH 8): 74%
temperature dependence of Mn^++ activation (in words) ([3]; 22-50° C.): occurs at a wide temperature range
% Conversion ([3]; 22° C.): 0.026%
% Conversion ([3]; 32° C.): 0.064%
% Conversion ([3]; 40° C.): 0.152%
% Conversion ([3]; 50° C.): 0.274%
effect on hydrolysis of raw corn starch (in words) [4]: enhances the hydrolysis of raw corn starch
Relative Activity ([5]; 0.01 mM Mn^++): 94.4%
Relative Activity ([5]; 0.1 mM Mn^++): 111.2%
Relative Activity ([5]; 1 mM Mn^++): 127.1%
Relative Activity ([5]; 10 mM Mn^++): 160.6%
effect on hydrolysis of raw corn starch (in words) ([5]; summary of Table 4): enhances the hydrolysis of raw corn starch
Relative Activity ([6]; 0.01 mM Mn^++, cooked high-amylose V corn starch 0.5%): 116.5%
Relative Activity ([6]; 0.01 mM Mn^++, cooked soluble corn starch 0.5%): 118.3%
Relative Activity ([6]; 0.01 mM Mn^++, cooked waxy corn starch 0.5%): 118.3%
Relative Activity ([6]; 0.1 mM Mn^++, cooked dent corn starch 0.5%): 124.4%
Relative Activity ([6]; 0.1 mM Mn^++, cooked high-amylose V corn starch 0.5%): 135.5%
Relative Activity ([6]; 0.1 mM Mn^++, cooked soluble corn starch 0.5%): 128.1%
Relative Activity ([6]; 0.1 mM Mn^++, cooked waxy corn starch 0.5%): 126.9%
Relative Activity ([6]; 1 mM Mn^++, cooked dent corn starch 0.5%): 128.7%
Relative Activity ([6]; 1 mM Mn^++, cooked soluble corn starch 0.5%): 135.8%
Relative Activity ([6]; 10 mM Mn^++, cooked dent corn starch 0.5%): 147.8%
Relative Activity ([6]; 10 mM Mn^++, cooked high-amylose V corn starch 0.5%): 160.1%
Relative Activity ([6]; 10 mM Mn^++, cooked soluble corn starch 0.5%): 162.7%
Relative Activity ([6]; 10 mM Mn^++, cooked waxy corn starch 0.5%): 155.8%
